Data reported in patent US12709734B2, “Human polarised three-dimensional cellular aggregates” (CAMBRIDGE ENTERPRISE LIMITED, priority 2018, dated 2026).
“Also recorded” adds a separate entry of the source.

Tests used:
[1] = tested on: hESCs (RUES2-GLR, MasterShef7); assay: Effect of Chiron pre-treatment on adherent hESCs (RT-qPCR, immunostaining); format: cell-based, human
Experimental: We pre-treated hESCs for 1 day in pluripotency medium supplemented with 3-3.5 μM of the Wnt signalling agonist, CHIR99021 (hereafter referred to as Chiron) before aggregation; effectively shifting the Chiron pulse to before the aggregation rather than 48 h after aggregation as is the case in mouse gastruloids (Baillie-Johnson, P., et al., 2015).
(§1) Before aggregation, hESCs cultured in 6-well plates were typically pretreated with 3-3.5 μM CHIR99021 (Chiron) in Nutristem for 24 h, unless otherwise stated.
Adherent cell staining was done using 1:200 Mouse anti-CDH2 (BD Biosciences, BD10920), 1:200 Rat anti-CDH1 (Takara, M108) and 1:200 Rabbit anti-BRACHYURY (AbCam, ab209665) primary antibodies. Quantification was performed using Fiji software on the whole image (histograms) or using a line ROI through the colony (line graph).
Gene expression was analysed from adherent cells using Trizol (Ambion LifeTechnologies) according to manufacturer's instructions. Total RNA was quantified using a NanoDrop 2000C (ThermoScientific) and 5 μg was added to a reverse transcription reaction with Superscript III (Invitrogen) according to manufacturer's instructions. Resultant cDNA was quantified by qPCR with SYBRGreen (Merck) using a liquid handling robot (Qiagility, Qiagen) and analysed on a RotorGeneQ thermocycler (Qiagen). Primer sequences can be found in Supplementary Table 1. Concentration of cDNA was estimated using an in-house MAK2 analysis method.

[2] = tested on: RUES2-GLR human gastruloids; assay: Human gastruloid formation: elongation and germ layer reporter patterning after pre-treatment; format: cell-based; conditions: for elongation / BRA expression of gastruloids: 24 h pre-treatment of RUES2-GLR cells in Nutristem with the named factor (Wnt3a 100 ng/ml or BMP4 50 ng/ml instead of Chiron); for SOX2 expression domain / SOX17 expression: Chiron + 10 μM SB431542 24 h pre-treatment vs Chiron only, RUES2-GLR reporter
Experimental: as §1
For signal modulation experiments, RUES2-GLR cells were pre-treated for 1 day in Nutristem supplemented with 100 ng/ml recombinant human Wnt3a (5036-WN-010) or 50 ng/ml BMP4 (314-BP), and aggregated in E6 and ROCK inhibitor with additional supplementation as shown. Subsequent media changes were performed daily with E6 alone. To test the effect of signal modulation on gastruloid formation, RUES2-GLR cells were pre-treated in Nutristem supplemented with 3.25 μM Chiron and one of 1 μM LDN193189 (04-0074), 1 μM XAV-939 (04-0046), or 10 μM SB431542 (1614) before aggregation in E6 with 0.5 μM Chiron and ROCK inhibitor, unless otherwise stated. Subsequent media changes were performed daily with E6 alone.
An alternative, ‘dorsalised’ protocol used 3 μM Chiron, supplemented with 10 μM SB431542 Nodal inhibitor (SB431542) also in Nutristem for 24 h.
After pre-treatment, hESCs at 60-85% confluency were washed twice with PBS−/−. For detachment, 2 ml 0.5 mM EDTA in PBS−/− was applied per well and cells were incubated at 37° C., 5% CO2 for 6.5 min. The plate was then carefully tapped against a solid object to promote detachment and the suspension was pipetted up and down repeatedly (5-10−) with a P1000 to break remaining clumps into single cells.
The suspension was then transferred into a 15 ml centrifuge tube with 8 ml PBS−/− and centrifuged for 3-5 min at 1000 rpm. The supernatant was removed, cells were washed with PBS−/− and spun down again 3-5 min at 1000 rpm. Subsequently, depending on the pellet size, cells were resuspended in 500 μl to 2 ml Essential 6 (E6) medium (Gibco, life technologies) and counted using an automated cell counter (MoxiZ, Orflo). Optimal cell density should be around 1×10^6/ml. The specific number of cells optimized per cell line (400/well for RUES2-TR, 500/well for mSHEF7 and H9TV lines) were then added to E6 supplemented with 5 μM Rock Inhibitor and 3 μM Chiron. Using a multichannel pipette, cells in this suspension were plated in 40 μl per well of an ultra-low adhesion, round bottom 96-well plate (Costar, Corning Inc.). At 24 h after aggregation, 150 μl E6 were added into each well using a multichannel pipette. E6 (see Chen et al., 2011) was continuously exchanged every subsequent day by removing 150 μl per well and adding the same amount.
Human gastruloids made using the RUES2-GLR reporter line were specifically analysed for dynamic reporter expression. An in-house MATLAB script was developed to assess the dynamic fluorescent marker expression along the AP axis of human gastruloids. Widefield images of gastruloids were taken at 24 h, 48 h and 72 h and aligned along their anteroposterior axis with reference to fluorescent reporter expression. For each sample, a binary image was generated in the brightfield channel and used as a mask for all fluorescent channels and the major (length) axis was identified. Consequently, for every pixel along the length axis, the sum of intensity values of the respective channel along the width of the aggregate was divided by the width of the gastruloid at that specific point, yielding the normalized fluorescence intensity along the length of the sample. This process was then repeated for every acquired fluorescent channel. Gastruloids used for this analysis were a full set from one experimental batch, and images were only excluded from the analysis when anteroposterior alignment or binarization were unsuccessful.
In order to quantify the degree of elongation of human gastruloids, brightfield channel widefield images were imported into Fiji (Schindelin et al., 2012). The length of the longest axis was measured using the line tool, followed by the length of the perpendicular axis at the mid-point of the longest axis line. […]

[3] = tested on: HYS01030 human induced pluripotent stem cell (iPSC) line; assay: Gastruloid formation from human induced pluripotent stem cells; format: cell-based; conditions: 3.5 uM Chiron 1 day before aggregation, aggregated in Chiron and ROCK inhibitor
From the text: FIG. 8: Human gastruloids made from induced pluripotent stem cells. […] 6 representative examples are show. […] There is also some sign of a rosette-like or lumenised structure that expresses SOX2 in the posterior tip (arrowhead). 3 representative examples are shown.
We used a wild type hESC line (mSHEF7; REF) as well as two transgenic lines, the H9TV BRACHYURY-Venus reporter (Mendjan et al., 2014) and RUES2-GLR, the triple reporter for germ layer markers with BRACHYURY-H2B-mCerulean, SOX17-H2B-tdTomato and SOX2-mCitrine (Simunovic et al., 2018). We also used a human induced pluripotent stem cell line, known as HYS01030 (unpublished).

[4] = tested on: RUES2-GLR human gastruloids; assay: Tomo-sequencing of Chiron vs Chiron+SB431542 pre-treated human gastruloids; format: cell-based
Experimental: An alternative, ‘dorsalised’ protocol used 3 μM Chiron, supplemented with 10 μM SB431542 Nodal inhibitor (SB431542) also in Nutristem for 24 h. Tomo-sequencing was performed and analysed in an updated version of published methods (Junker et al., 2014; and Kruse et al., 2016). In short, gastruloids were sectioned along their AP axis, and the mRNA-content of each section was extracted using SORT-seq (Muraro et al., 2016). Paired end (75 bp) sequencing was performed on the resulting RNA-seq libraries using the Illumina Next-Seq sequencing platform. Read 1 contains the cell or section barcode and the unique molecular identifier (UMI). Read 2 contains the biological information. Reads 2 with a valid cell/section barcode were selected and mapped using STAR-2.5.3a with default parameters to the human GRCh38 genome (ENSEMBL version 93), and only reads mapping to gene bodies (exons or introns) were used for downstream analysis. Reads mapping simultaneously to an exon and to an intron were assigned to the exon. Mappabilities for the different samples range between 44% and 47%. For each cell or section, the number of transcripts was obtained as previously described […]. We refer to transcripts as unique molecules based on UMI correction. […] In each gastruloid, data was then normalized to the median number of unique transcripts per slice, and the z-score of each gene was extracted along sections. The reproducibility of AP expression pattern between different gastruloid replicates was scored for each gene using a random background model to calculate the Pearson correlation coefficient p-value. The p-value threshold to select reproducible genes was set at 0.001. […] Differential gene expression was performed by normalizing the transcripts in each section to 100,000 for all gastruloids; then pooling all sections of each gastruloid together; and finally assessing significant differentially expressed genes based on total expression using the Binomial test. An alternative, ‘dorsalised’ protocol used 3.25 μM Chiron, supplemented with 10 μM SB431542 Nodal inhibitor (SB431542) also in Nutristem for 24 h. They were then aggregated in E6 with 3 μM Chiron and ROCK inhibitor.

[5] = 120 h Chi+SB43 vs 72 h Chiron pre-treated gastruloids
[6] = Chi+SB43 vs Chi pre-treated gastruloids
[7] = Chiron + SB431542 pre-treated vs Chiron pre-treated gastruloids
[8] = of genes reproducible in either or both conditions, Chi+SB43 vs Chi

Cc1c[nH]c(-c2cnc(NCCNc3ccc(C#N)cn3)nc2-c2ccc(Cl)cc2Cl)n1 [Chiron, CHIR99021]
expression of NANOG ([1]; 24 h Chiron pre-treatment vs Nutristem alone, RT-qPCR, RUES2-GLR): increased expression | expression and membrane localisation of CDH1 (E-cadherin) / CDH2 (N-cadherin) ([1]; 24 h Chiron pre-treatment vs Nutristem, immunostaining of adherent colonies): switch in the expression and membrane localisation of CDH1 (E-cadherin) towards CDH2 (N-cadherin; also recorded: increase in the expression of membrane localised CDH2 (N-cadherin) | expression of mesendodermal marker genes (BRA, MIXL1, LEFTY1, LEFTY2, AXIN2, EOMES, CDX1) ([1]; 1 day Chiron pre-treatment vs pluripotency medium alone, RT-qPCR): increased expression | expression of pluripotency markers (POU5F1, SOX2) ([1]; 1 day pre-treatment with 3-3.5 μM Chiron vs pluripotency medium (Nutristem) alone, RT-qPCR): levels equivalent to cells maintained in pluripotency medium alone; also recorded: levels comparable to cells maintained in pluripotency medium alone | levels of SOX2 ([1]; 1 day pre-treatment with 3-3.5 μM Chiron vs pluripotency medium alone, RT-qPCR): slightly reduced | elongation / BRA expression of gastruloids [2]: strictly dependent on the Chiron pre-treatment | aggregates displaying an elongated morphology ([2]; 72 h after aggregation, Chiron pre-treated RUES2-GLR, average of experiments): ~ 66% | morphology of iPSC-derived aggregates [3]: polarised in their morphology at 72 hours

NC(=O)c1ccc(-c2nc(-c3ccc4c(c3)OCO4)c(-c3ccccn3)[nH]2)cc1 [SB431542]
BRA expression pattern ([2]; Chiron + 10 μM SB431542 24 h pre-treatment): diffuse expression of BRA that approximated a gradient from anterior to posterior | SOX2 expression domain [2]: distinctly larger domains of SOX2 expression | SOX17 expression [2]: fewer, if any, SOX17 expressing cells | SOX2 expression domain ([2]; listed as SB43): larger, well-defined SOX2 domain at their posterior end | SOX17 expression ([2]; listed as SB43): absence of detectable SOX17 expression | elongation and polarisation of gene expression ([2]; Chiron + 10 μM SB431542 24 h pre-treatment, compared to original method): able to elongate and polarise their gene expression | genes reproducibly localised in both conditions [4, 5]: 301 genes | genes with loss of reproducible localisation [4, 5]: 509 genes | genes with novel spatial localisation acquired [4, 5]: 944 genes | expression of HOX genes (HOXC9, HOXA9, HOXC6) and SOX2 [4, 6]: up-regulation | expression of Nodal signalling components and targets [4, 6]: down-regulation | expression of cardiac development genes (TBX5, GATA6, LBX1, NKX2.5) [4, 6]: loss of many genes | expression of definitive endoderm genes (SHH, LHX1, CER1, FOXA3, SORCS2, FOXA2) [4, 6]: decrease in expression | domain-size and level of expression of SOX2 and SOX3 [4, 7]: increase in the domain-size and level of expression | expression of BRA, CYP26A1 and WNT3A in the posterior domain [4, 7]: comparable to the Chiron pre-treated human gastruloids | expression of FOXA2 [4, 7]: very little expression | expression of Node-like markers NODAL, NOTO, PITX2, DAND5 [4, 7]: no detectable expression | expression of asymmetry markers LEFTY1, LEFTY2 and anterior cardiac mesoderm markers GATA4, GATA6, HAND2 [4, 7]: little or no expression | localisation of somitogenesis-like genes (MEOX, TCF15) ([4]; Chiron + SB431542 pre-treated vs Chiron pre-treated gastruloids (central region)): become anteriorly localised | genes differentially expressed between the two treatments [4, 8]: 564 genes | proportion of genes differentially expressed between the two treatments [4, 8]: 33%

B1: Wnt3a: recombinant human Wnt3a (protein, UniProt P56704 19-352, looked up)
Protein Wnt-3a: SYPIWWSLAVGPQYSSLGSQPILCASIPGLVPKQLRFCRNYVEIMPSVAEGIKIGIQECQHQFRGRRWNCTTVHDSLAIFGPVLDKATRESAFVHAIASAGVAFAVTRSCAEGTAAICGCSSRHQGSPGKGWKWGGCSEDIEFGGMVSREFADARENRPDARSAMNRHNNEAGRQAIASHMHLKCKCHGLSGSCEVKTCWWSQPDFRAIGDFLKDKYDSASEMVVEKHRESRGWVETLRPRYTYFKVPTERDLVYYEASPNFCEPNPETGSFGTRDRTCNVSSHGIDGCDLLCCGRGHNARAERRREKCRCVFHWCCYVSCQECTRVYDVHTCK
elongation / BRA expression of gastruloids [2]: insufficient to promote elongation or BRA expression

B2: BMP4: BMP4 protein used for pre-treatment, 50 ng/ml (protein, UniProt P12644 293-408, looked up)
Bone morphogenetic protein 4: SPKHHSQRARKKNKNCRRHSLYVDFSDVGWNDWIVAPPGYQAFYCHGDCPFPLADHLNSTNHAIVQTLVNSVNSSIPKACCVPTELSAISMLYLDEYDKVVLKNYQEMVVEGCGCR
elongation / BRA expression of gastruloids [2]: insufficient to promote elongation or BRA expression
